Assay results published in patent publication US7157620B2, “Enhanced transformation and regeneration of transformed embryogenic pine tissue” (Mead Westvaco Corporation, priority 2000, dated 2007).

Assays:
[1] = test system: Loblolly pine cell lines; assay: ABA in selection media after biolistic transformation; type: cell-based, Pinus taeda
Excerpt: Loblolly pine cell lines were used which had been grown and maintained as described in Example 1 above, and prepared for biolistic transformation as described in Example 4 above. Following bombardment the support membranes bearing the bombarded embryogenic cells were transferred to DCR2 maintenance media for one week. Following this the support membranes bearing the bombarded embryogenic cells were divided among plates containing gelled DCR selection medium either with or without the addition of 10 mg/l abscisic acid (ABA), and cultured for three weeks. Cells selected on either type of selection medium during this first selection period on selection medium containing ABA were then divided among plates with and without ABA and cultured for a further three weeks. The same occurred in the next transfer, resulting in groups of cells that had been selected entirely in the absence of ABA, entirely in the presence of ABA, or in the presence of ABA for one of the three three-week selection periods.

[2] = test system: P. rigida hybrid embryogenic cell line; assay: Effect of ABA in preparation, recovery and selection media on transformants after Agrobacterium inoculation; type: cell-based; conditions: line H1
Excerpt: (§1) Seven loblolly pine cell lines or hybrid cell lines from seven widely diverse genetic backgrounds were used which had been grown, maintained, and transformed using Agrobacterium as described in Example 1 above except that the preparation medium, used for preparation and co-cultivation of the cells, either contained or lacked ABA. Following eradication using wash medium as described in Example 5 above, polyester support membranes bearing approximately 0.1 g of embryogenic tissue were divided onto recovery media either containing or lacking ABA. […] Concentrations of ABA used in all these media were 0, 10, and 30 mg/L.
(§2) Cells were maintained on the selection media, with transfer of the polyester support membranes to fresh selection media of the same composition, every two weeks for a total of eight weeks of selection. […] The cells were also checked for the presence of sequences by PCR amplification using primers specific for both the uidA and nptII transgenes, techniques well known to those skilled in the art of plant transformation.

[3] = test system: P. taeda embryogenic cell lines; assay: as above; type: cell-based, Pinus taeda
Excerpt: as §1, §2

SMILES: CC1=CC(=O)CC(C)(C)[C@@]1(O)/C=C/C(C)=C\C(=O)O [ABA, abscisic acid]
- transformants from a cell line of progeny of the P. taeda elite line 7–56 ([1]; 10 mg/L ABA in selection medium): observed only on treatments that had contained ABA in the selection medium
- number of transformants obtained when ABA was present during the entire selection period ([1]; 10 mg/l ABA in DCR selection medium, nine weeks, all lines tested): equal to or greater than the number obtained for any other treatment
- Average (n = 12) number of transformants observed per selection plate ([2]; ABA mg/l preparation/recovery/selection medium 0/0/10): 27.0
- Average (n = 12) number of transformants observed per selection plate ([2]; ABA mg/l preparation/recovery/selection medium 0/0/30): 21.1
- Average (n = 12) number of transformants observed per selection plate ([2]; ABA mg/l preparation/recovery/selection medium 0/10/10): 19.0
- Average (n = 12) number of transformants observed per selection plate ([2]; ABA mg/l preparation/recovery/selection medium 0/10/30): 21.6
- Average (n = 12) number of transformants observed per selection plate ([2]; ABA mg/l preparation/recovery/selection medium 0/30/30): 15.1
- Average (n = 12) number of transformants observed per selection plate ([2]; ABA mg/l preparation/recovery/selection medium 10/10/10): 21.9
- Average (n = 12) number of transformants observed per selection plate ([2]; ABA mg/l preparation/recovery/selection medium 30/10/10): 22.9
- Average (n = 12) number of transformants observed per selection plate ([2]; ABA mg/l preparation/recovery/selection medium 30/30/30): 21.8
- effect of ABA in the preparation medium on the observation of transformants ([3]; 10 or 30 mg/L ABA): neutral or beneficial
- necrotic foci in somatic embryogenic masses versus media without ABA ([3]; 10 or 30 mg/L ABA during and after co-cultivation, all lines): fewer necrotic foci
- Average (n = 12) number of transformants observed per selection plate ([3]; line P1, ABA mg/l preparation/recovery/selection medium 0/0/10): 0.3
- Average (n = 12) number of transformants observed per selection plate ([3]; line P1, ABA mg/l preparation/recovery/selection medium 0/0/30): 0.0
- Average (n = 12) number of transformants observed per selection plate ([3]; line P1, ABA mg/l preparation/recovery/selection medium 0/10/10): 0.0
- Average (n = 12) number of transformants observed per selection plate ([3]; line P1, ABA mg/l preparation/recovery/selection medium 0/10/30): 0.1
- Average (n = 12) number of transformants observed per selection plate ([3]; line P1, ABA mg/l preparation/recovery/selection medium 0/30/30): 0.8
- Average (n = 12) number of transformants observed per selection plate ([3]; line P1, ABA mg/l preparation/recovery/selection medium 10/10/10): 1.3
- Average (n = 12) number of transformants observed per selection plate ([3]; line P1, ABA mg/l preparation/recovery/selection medium 30/10/10): 0.3
- Average (n = 12) number of transformants observed per selection plate ([3]; line P1, ABA mg/l preparation/recovery/selection medium 30/30/30): 0.4
- Average (n = 12) number of transformants observed per selection plate ([3]; line P2, ABA mg/l preparation/recovery/selection medium 0/0/10): 5.8
- Average (n = 12) number of transformants observed per selection plate ([3]; line P2, ABA mg/l preparation/recovery/selection medium 0/0/30): 8.8
- Average (n = 12) number of transformants observed per selection plate ([3]; line P2, ABA mg/l preparation/recovery/selection medium 0/10/10): 1.0
- Average (n = 12) number of transformants observed per selection plate ([3]; line P2, ABA mg/l preparation/recovery/selection medium 0/10/30): 0.3
- Average (n = 12) number of transformants observed per selection plate ([3]; line P2, ABA mg/l preparation/recovery/selection medium 0/30/30): 5.2
- Average (n = 12) number of transformants observed per selection plate ([3]; line P2, ABA mg/l preparation/recovery/selection medium 10/10/10): 10.0
- Average (n = 12) number of transformants observed per selection plate ([3]; line P2, ABA mg/l preparation/recovery/selection medium 30/10/10): 5.9
- Average (n = 12) number of transformants observed per selection plate ([3]; line P2, ABA mg/l preparation/recovery/selection medium 30/30/30): 5.3
- Average (n = 12) number of transformants observed per selection plate ([3]; line P3, ABA mg/l preparation/recovery/selection medium 0/0/10): 21.7
- Average (n = 12) number of transformants observed per selection plate ([3]; line P3, ABA mg/l preparation/recovery/selection medium 0/0/30): 22.3
- Average (n = 12) number of transformants observed per selection plate ([3]; line P3, ABA mg/l preparation/recovery/selection medium 0/10/10): 23.3
- Average (n = 12) number of transformants observed per selection plate ([3]; line P3, ABA mg/l preparation/recovery/selection medium 0/10/30): 26.0
- Average (n = 12) number of transformants observed per selection plate ([3]; line P3, ABA mg/l preparation/recovery/selection medium 0/30/30): 18.6
- Average (n = 12) number of transformants observed per selection plate ([3]; line P3, ABA mg/l preparation/recovery/selection medium 10/10/10): 22.6
- Average (n = 12) number of transformants observed per selection plate ([3]; line P3, ABA mg/l preparation/recovery/selection medium 30/10/10): 21.6
- Average (n = 12) number of transformants observed per selection plate ([3]; line P3, ABA mg/l preparation/recovery/selection medium 30/30/30): 21.1
- Average (n = 12) number of transformants observed per selection plate ([3]; line P4, ABA mg/l preparation/recovery/selection medium 0/0/10): 27.5
- Average (n = 12) number of transformants observed per selection plate ([3]; line P4, ABA mg/l preparation/recovery/selection medium 0/0/30): 34.9
- Average (n = 12) number of transformants observed per selection plate ([3]; line P4, ABA mg/l preparation/recovery/selection medium 0/10/10): 28.8
- Average (n = 12) number of transformants observed per selection plate ([3]; line P4, ABA mg/l preparation/recovery/selection medium 0/10/30): 30.9
- Average (n = 12) number of transformants observed per selection plate ([3]; line P4, ABA mg/l preparation/recovery/selection medium 0/30/30): 28.6
- Average (n = 12) number of transformants observed per selection plate ([3]; line P4, ABA mg/l preparation/recovery/selection medium 10/10/10): 27.8
- Average (n = 12) number of transformants observed per selection plate ([3]; line P4, ABA mg/l preparation/recovery/selection medium 30/10/10): 22.7
- Average (n = 12) number of transformants observed per selection plate ([3]; line P4, ABA mg/l preparation/recovery/selection medium 30/30/30): 27.3
- Average (n = 12) number of transformants observed per selection plate ([3]; line P5, ABA mg/l preparation/recovery/selection medium 0/0/10): 18.1
- Average (n = 12) number of transformants observed per selection plate ([3]; line P5, ABA mg/l preparation/recovery/selection medium 0/0/30): 5.5
- Average (n = 12) number of transformants observed per selection plate ([3]; line P5, ABA mg/l preparation/recovery/selection medium 0/10/10): 2.4
- Average (n = 12) number of transformants observed per selection plate ([3]; line P5, ABA mg/l preparation/recovery/selection medium 0/10/30): 7.2
- Average (n = 12) number of transformants observed per selection plate ([3]; line P5, ABA mg/l preparation/recovery/selection medium 0/30/30): 3.3
- Average (n = 12) number of transformants observed per selection plate ([3]; line P5, ABA mg/l preparation/recovery/selection medium 10/10/10): 10.3
- Average (n = 12) number of transformants observed per selection plate ([3]; line P5, ABA mg/l preparation/recovery/selection medium 30/10/10): 11.3
- Average (n = 12) number of transformants observed per selection plate ([3]; line P5, ABA mg/l preparation/recovery/selection medium 30/30/30): 14.3
- Average (n = 12) number of transformants observed per selection plate ([3]; line P6, ABA mg/l preparation/recovery/selection medium 0/0/10): 3.9
- Average (n = 12) number of transformants observed per selection plate ([3]; line P6, ABA mg/l preparation/recovery/selection medium 0/0/30): 3.3
- Average (n = 12) number of transformants observed per selection plate ([3]; line P6, ABA mg/l preparation/recovery/selection medium 0/10/10): 3.2
- Average (n = 12) number of transformants observed per selection plate ([3]; line P6, ABA mg/l preparation/recovery/selection medium 0/10/30): 3.2
- Average (n = 12) number of transformants observed per selection plate ([3]; line P6, ABA mg/l preparation/recovery/selection medium 0/30/30): 2.3
- Average (n = 12) number of transformants observed per selection plate ([3]; line P6, ABA mg/l preparation/recovery/selection medium 10/10/10): 4.5
- Average (n = 12) number of transformants observed per selection plate ([3]; line P6, ABA mg/l preparation/recovery/selection medium 30/10/10): 3.1
- Average (n = 12) number of transformants observed per selection plate ([3]; line P6, ABA mg/l preparation/recovery/selection medium 30/30/30): 2.3
